Data on one sequence can be found in publication PMC9046087, “Structural basis of tethered agonism of the adhesion GPCRs ADGRD1 and ADGRF1” (Nature, 2022).

Experiment in all cases: BRET assay using TRUPATH biosensors, Gs activation of ADGRF1
Type in all cases: cell-based

Assay [1] addresses T1, ADGRF1 (Homo sapiens, UniProt Q5T601).
T1 construct: Flag (N); expressed in transfected cells; host or cells: HEK293F
T1 sequence (Q5T601 20-910): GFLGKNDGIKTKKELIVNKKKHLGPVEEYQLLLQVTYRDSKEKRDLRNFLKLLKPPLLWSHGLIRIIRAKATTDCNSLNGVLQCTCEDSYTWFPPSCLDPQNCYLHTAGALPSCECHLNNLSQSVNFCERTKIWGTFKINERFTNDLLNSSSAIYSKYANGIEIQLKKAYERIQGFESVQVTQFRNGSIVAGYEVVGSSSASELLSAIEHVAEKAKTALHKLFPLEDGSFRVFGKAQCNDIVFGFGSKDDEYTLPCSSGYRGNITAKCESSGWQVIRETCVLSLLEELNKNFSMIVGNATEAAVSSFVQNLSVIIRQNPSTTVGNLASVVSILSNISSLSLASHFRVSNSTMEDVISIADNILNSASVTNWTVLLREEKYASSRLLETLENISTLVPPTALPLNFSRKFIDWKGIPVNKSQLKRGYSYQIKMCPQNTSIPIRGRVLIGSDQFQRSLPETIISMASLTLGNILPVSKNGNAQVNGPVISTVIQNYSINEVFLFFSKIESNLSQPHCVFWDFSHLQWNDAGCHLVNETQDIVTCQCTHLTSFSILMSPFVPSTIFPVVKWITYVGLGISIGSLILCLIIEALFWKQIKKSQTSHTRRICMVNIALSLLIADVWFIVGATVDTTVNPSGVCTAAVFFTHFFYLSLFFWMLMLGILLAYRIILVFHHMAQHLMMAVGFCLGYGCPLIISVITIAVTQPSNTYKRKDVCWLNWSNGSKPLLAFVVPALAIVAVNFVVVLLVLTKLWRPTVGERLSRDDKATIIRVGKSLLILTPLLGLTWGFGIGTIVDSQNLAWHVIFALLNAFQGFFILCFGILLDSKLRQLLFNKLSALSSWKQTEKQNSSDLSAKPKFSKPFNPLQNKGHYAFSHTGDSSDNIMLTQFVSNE
Particulars: Gs, ADGRF1 WT, n = 7. The procedure:
(§1) To study the synthetic stalk peptide-induced G protein activation of ADGRD1 and ADGRF1, a BRET assay using TRUPATH biosensors was conducted to measure the proximal interaction between RLuc8 fused to the Gα subunit and GFP2 fused to the Gγ subunit. The TRUPATH suite of biosensors was obtained from Addgene (Addgene kit no. 1000000163) as a gift from B. Roth, including GαsS-RLuc8, Gαi1-RLuc8, Gβ3 and Gγ9-GFP2 as previously described.
(§2) The wild-type or mutant ADGRD1 and ADGRF1 were transiently co-transfected with plasmids encoding Gα-RLuc8 (GαsS-RLuc8 for Gs activation assay; Gαi1-RLuc8 for Gi activation assay), Gβ3 and Gγ9-GFP2 at a ratio of 2:1:1:1 (receptor plasmid, 800 ng; G protein subunit plasmids, 400 ng for each) in 2 ml HEK293F cells at a density of 1.2 × 10^6 cells per ml. Cell cultivation and receptor surface expression measurement were performed as described above. The cells were plated into 96-well white plates (40,000 cells per well) in 60 μl of assay buffer and incubated at 37 °C for 30 min. Then 10 μl of freshly prepared 50 μM coelenterazine 400a (Nanolight Technologies) was added. […] The cells were stimulated with 30 μl of synthetic stalk peptide at different concentrations and the BRET signals were monitored continuously five times. The last measurements were used in data analysis. The BRET ratios were calculated as the ratio of the GFP2 emission to RLuc8 emission.

For assay [2], the target named is T2, ADGRF1 (Homo sapiens, UniProt Q5T601, F690A).
T2 construct: Flag (N); expressed in transfected cells; host or cells: HEK293F
T2 sequence (Q5T601 20-910 F690A): T1 sequence (Q5T601 20-910) with F671A
Particulars: Gs, ADGRF1 F690^ICL2A, n = 3. The method, then: as §1, §2

Assay [3] addresses T3, ADGRF1 (Homo sapiens, UniProt Q5T601, R788A).
T3 construct: Flag (N); expressed in transfected cells; host or cells: HEK293F
Particulars: Gs, ADGRF1 R788^6.37bA, n = 3. The method, then:
as §1, §2

Setting [4] is: read-out: pEC50 (mean ± s.e.m.) (converted).

Changes are numbered by the printed parent chain. Ends that are not written are not given here.

T3 sequence (Q5T601 20-910 R788A): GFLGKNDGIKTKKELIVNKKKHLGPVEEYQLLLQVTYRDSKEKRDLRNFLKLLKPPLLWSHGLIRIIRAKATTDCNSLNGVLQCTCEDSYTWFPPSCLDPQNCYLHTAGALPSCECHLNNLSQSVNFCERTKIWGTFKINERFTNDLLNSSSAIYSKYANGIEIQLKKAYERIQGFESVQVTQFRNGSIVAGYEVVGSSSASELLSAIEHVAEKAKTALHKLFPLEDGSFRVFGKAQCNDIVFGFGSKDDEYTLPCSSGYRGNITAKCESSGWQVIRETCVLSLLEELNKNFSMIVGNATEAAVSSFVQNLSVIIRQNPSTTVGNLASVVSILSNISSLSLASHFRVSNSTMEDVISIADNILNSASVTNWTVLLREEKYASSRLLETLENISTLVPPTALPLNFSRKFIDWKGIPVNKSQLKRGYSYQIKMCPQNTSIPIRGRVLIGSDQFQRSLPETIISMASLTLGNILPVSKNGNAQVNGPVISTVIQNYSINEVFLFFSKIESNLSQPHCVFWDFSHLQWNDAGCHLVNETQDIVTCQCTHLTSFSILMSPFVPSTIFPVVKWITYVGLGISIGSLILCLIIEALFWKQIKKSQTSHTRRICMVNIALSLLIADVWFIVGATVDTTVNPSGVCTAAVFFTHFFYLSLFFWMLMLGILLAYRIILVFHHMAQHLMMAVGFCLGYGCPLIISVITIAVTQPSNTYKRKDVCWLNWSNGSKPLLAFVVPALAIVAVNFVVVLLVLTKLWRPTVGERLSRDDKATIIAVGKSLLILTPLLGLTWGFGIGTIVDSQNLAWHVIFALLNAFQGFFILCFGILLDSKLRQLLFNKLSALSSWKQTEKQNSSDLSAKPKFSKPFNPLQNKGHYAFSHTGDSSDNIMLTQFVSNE

Regarding TSFSILMSPFVP [pF1], the “Emax (mean ± s.e.m.)” value at ADGRF1 [1] is 100 ± 9 % of WT; on ADGRF1 [2] it was 110 ± 12 % of WT; at ADGRF1 [3], 112 ± 15 % of WT. Further, the values for the EC50 at ADGRF1 [1] (setting [4]), on ADGRF1 [2] (setting [4]) and at ADGRF1 [3] (setting [4]) were 35.5 nM, 115 nM and 933 nM, respectively.
